Reference: the NIST ThermoML archive (doi:10.1021/je800334m)
± gives the expanded uncertainty stated by the source.

Assay: excess molar enthalpy (molar enthalpy of mixing); xn = mol fraction of the nth substance listed
Details: Liquid, Flow calorimetry

CN(C)CCO [2-(N,N-dimethylamino)ethanol] + CCO
excess molar enthalpy [kcal/mol]
Details | 298.2 K | 313.2 K | 328.2 K
100 kPa, x1 = 0.0717 | -0.035 ± 0.000884 | -0.0369 ± 0.000932 | –
100 kPa, x1 = 0.1392 | -0.0579 ± 0.00134 | -0.0621 ± 0.00141 | –
100 kPa, x1 = 0.2028 | – | -0.0786 ± 0.00174 | –
100 kPa, x1 = 0.2034 | – | – | -0.0744 ± 0.00165
100 kPa, x1 = 0.2054 | -0.0763 ± 0.0017 | – | –
100 kPa, x1 = 0.2654 | – | – | -0.0854 ± 0.00189
100 kPa, x1 = 0.2665 | -0.0874 ± 0.00191 | -0.0911 ± 0.00201 | –
100 kPa, x1 = 0.3253 | – | – | -0.092 ± 0.00201
100 kPa, x1 = 0.3264 | -0.0938 ± 0.00206 | -0.0978 ± 0.00215 | –
100 kPa, x1 = 0.3839 | – | – | -0.0953 ± 0.00208
100 kPa, x1 = 0.3845 | -0.0975 ± 0.00213 | -0.101 ± 0.00222 | –
100 kPa, x1 = 0.4385 | – | – | -0.0962 ± 0.0021
100 kPa, x1 = 0.4399 | -0.0983 ± 0.00215 | -0.102 ± 0.00222 | –
100 kPa, x1 = 0.4916 | -0.0967 ± 0.0021 | -0.1 ± 0.00217 | –
100 kPa, x1 = 0.4924 | – | – | -0.094 ± 0.00206
100 kPa, x1 = 0.5427 | -0.0933 ± 0.00206 | -0.0963 ± 0.0021 | -0.0913 ± 0.00201
100 kPa, x1 = 0.591 | – | – | -0.0857 ± 0.00189
100 kPa, x1 = 0.5925 | -0.0886 ± 0.00194 | -0.0911 ± 0.00201 | –
100 kPa, x1 = 0.6393 | – | – | -0.0799 ± 0.00177
100 kPa, x1 = 0.6409 | -0.0822 ± 0.00182 | -0.0846 ± 0.00186 | –
100 kPa, x1 = 0.683 | – | -0.0777 ± 0.00172 | –
100 kPa, x1 = 0.6848 | – | – | -0.0727 ± 0.0016
100 kPa, x1 = 0.6874 | -0.0745 ± 0.00165 | – | –
100 kPa, x1 = 0.727 | – | -0.0695 ± 0.00155 | –
100 kPa, x1 = 0.7296 | – | – | -0.065 ± 0.00143
100 kPa, x1 = 0.7314 | -0.0665 ± 0.00148 | – | –
100 kPa, x1 = 0.7727 | -0.0592 ± 0.00134 | -0.0602 ± 0.00136 | –
100 kPa, x1 = 0.8108 | – | -0.0513 ± 0.00117 | –
100 kPa, x1 = 0.8157 | -0.0487 ± 0.00112 | – | –
100 kPa, x1 = 0.8553 | -0.0402 ± 0.000956 | -0.0402 ± 0.000956 | –
100 kPa, x1 = 0.8911 | -0.031 ± 0.000789 | -0.0309 ± 0.000765 | –
100 kPa, x1 = 0.9281 | -0.0203 ± 0.000598 | -0.0209 ± 0.000598 | –
100 kPa, x1 = 0.9663 | -0.00889 ± 0.00043 | -0.00985 ± 0.00043 | –
10000 kPa, x1 = 0.0699 | – | -0.037 ± 0.000932 | –
10000 kPa, x1 = 0.0721 | -0.0371 ± 0.000932 | – | –
10000 kPa, x1 = 0.1399 | -0.0613 ± 0.00141 | -0.0633 ± 0.00143 | –
10000 kPa, x1 = 0.2039 | -0.0767 ± 0.0017 | -0.0802 ± 0.00177 | –
10000 kPa, x1 = 0.2044 | – | – | -0.0752 ± 0.00167
10000 kPa, x1 = 0.265 | – | -0.0917 ± 0.00201 | –
10000 kPa, x1 = 0.2667 | – | – | -0.086 ± 0.00189
10000 kPa, x1 = 0.2678 | -0.0878 ± 0.00194 | – | –
10000 kPa, x1 = 0.3249 | – | -0.0989 ± 0.00215 | –
10000 kPa, x1 = 0.3267 | – | – | -0.0926 ± 0.00203
10000 kPa, x1 = 0.3279 | -0.0955 ± 0.0021 | – | –
10000 kPa, x1 = 0.3829 | -0.0988 ± 0.00215 | -0.102 ± 0.00222 | –
10000 kPa, x1 = 0.3835 | – | – | -0.0962 ± 0.0021
10000 kPa, x1 = 0.4381 | -0.0997 ± 0.00217 | -0.103 ± 0.00225 | -0.0965 ± 0.0021
10000 kPa, x1 = 0.4919 | – | – | -0.0945 ± 0.00208
10000 kPa, x1 = 0.4933 | -0.0979 ± 0.00215 | -0.101 ± 0.0022 | –
10000 kPa, x1 = 0.5421 | – | – | -0.0909 ± 0.00201
10000 kPa, x1 = 0.5443 | -0.0944 ± 0.00208 | -0.0972 ± 0.00213 | –
10000 kPa, x1 = 0.5902 | – | -0.0923 ± 0.00203 | –
10000 kPa, x1 = 0.5926 | – | – | -0.0858 ± 0.00189
10000 kPa, x1 = 0.5941 | -0.0891 ± 0.00196 | – | –
10000 kPa, x1 = 0.6383 | -0.0835 ± 0.00184 | -0.0856 ± 0.00189 | -0.0795 ± 0.00177
10000 kPa, x1 = 0.6845 | -0.0762 ± 0.0017 | -0.0782 ± 0.00172 | –
10000 kPa, x1 = 0.7283 | -0.0684 ± 0.00153 | -0.0701 ± 0.00155 | –
10000 kPa, x1 = 0.7739 | -0.0591 ± 0.00134 | -0.0605 ± 0.00136 | –
10000 kPa, x1 = 0.8118 | -0.0505 ± 0.00117 | -0.0517 ± 0.0012 | –
10000 kPa, x1 = 0.8511 | -0.0409 ± 0.00098 | -0.042 ± 0.001 | –
10000 kPa, x1 = 0.8917 | -0.0305 ± 0.000765 | -0.0311 ± 0.000789 | –
10000 kPa, x1 = 0.9285 | -0.0202 ± 0.000598 | -0.021 ± 0.000598 | –
10000 kPa, x1 = 0.9665 | -0.00903 ± 0.000406 | -0.00989 ± 0.00043 | –
